Reference: the NIST ThermoML archive (doi:10.1016/j.jct.2011.08.016)
Numbers after ± are expanded uncertainties.

Experiment: xn = mol fraction of the nth substance listed
Details: Liquid, Vibrating tube method

CCCCCCCCCC [decane] + CCCCCCCC
Details | mass density [kg/m3]
363.03 K, 7000 kPa, x2 = 0.0616 | 682.5 ± 0.45
363.03 K, 8000 kPa, x2 = 0.0616 | 683.6 ± 0.45
363.03 K, 9000 kPa, x2 = 0.0616 | 684.68 ± 0.46
363.03 K, 10000 kPa, x2 = 0.0616 | 685.7 ± 0.46
363.03 K, 10990 kPa, x2 = 0.0616 | 686.75 ± 0.47
363.03 K, 12000 kPa, x2 = 0.0616 | 687.8 ± 0.47
363.03 K, 13000 kPa, x2 = 0.0616 | 688.75 ± 0.48
363.03 K, 14000 kPa, x2 = 0.0616 | 689.77 ± 0.49
363.03 K, 15000 kPa, x2 = 0.0616 | 690.77 ± 0.49
363.03 K, 16000 kPa, x2 = 0.0616 | 691.73 ± 0.5
363.03 K, 17000 kPa, x2 = 0.0616 | 692.68 ± 0.51
363.03 K, 18000 kPa, x2 = 0.0616 | 693.63 ± 0.51
363.03 K, 19000 kPa, x2 = 0.0616 | 694.55 ± 0.52
363.03 K, 20000 kPa, x2 = 0.0616 | 695.46 ± 0.53
363.03 K, 21000 kPa, x2 = 0.0616 | 696.37 ± 0.53
363.03 K, 22000 kPa, x2 = 0.0616 | 697.23 ± 0.54
363.03 K, 23000 kPa, x2 = 0.0616 | 698.12 ± 0.55
363.03 K, 24000 kPa, x2 = 0.0616 | 699 ± 0.55
363.03 K, 25000 kPa, x2 = 0.0616 | 699.81 ± 0.56
363.05 K, 1000 kPa, x2 = 0.2801 | 670.18 ± 0.42
363.05 K, 2000 kPa, x2 = 0.2801 | 671.39 ± 0.42
363.05 K, 3000 kPa, x2 = 0.2801 | 672.48 ± 0.43
363.05 K, 4000 kPa, x2 = 0.2801 | 673.67 ± 0.43
363.05 K, 5000 kPa, x2 = 0.2801 | 674.81 ± 0.44
363.05 K, 6000 kPa, x2 = 0.2801 | 675.97 ± 0.44
363.05 K, 7000 kPa, x2 = 0.2801 | 677.07 ± 0.45
363.05 K, 8000 kPa, x2 = 0.2801 | 678.19 ± 0.45
363.05 K, 9000 kPa, x2 = 0.2801 | 679.28 ± 0.46
363.05 K, 10000 kPa, x2 = 0.2801 | 680.35 ± 0.47
363.05 K, 10990 kPa, x2 = 0.2801 | 681.42 ± 0.47
363.05 K, 12000 kPa, x2 = 0.2801 | 682.49 ± 0.48
363.05 K, 13000 kPa, x2 = 0.2801 | 683.53 ± 0.48
363.05 K, 14000 kPa, x2 = 0.2801 | 684.56 ± 0.49
363.05 K, 15000 kPa, x2 = 0.2801 | 685.57 ± 0.5
363.05 K, 16000 kPa, x2 = 0.2801 | 686.57 ± 0.5
363.05 K, 17000 kPa, x2 = 0.2801 | 687.56 ± 0.51
363.05 K, 18000 kPa, x2 = 0.2801 | 688.51 ± 0.52
363.05 K, 19000 kPa, x2 = 0.2801 | 689.47 ± 0.52
363.05 K, 20000 kPa, x2 = 0.2801 | 690.38 ± 0.53
363.05 K, 21000 kPa, x2 = 0.2801 | 691.33 ± 0.54
363.05 K, 22000 kPa, x2 = 0.2801 | 692.19 ± 0.54
363.05 K, 23000 kPa, x2 = 0.2801 | 693.06 ± 0.55
363.05 K, 24000 kPa, x2 = 0.2801 | 693.94 ± 0.56
363.05 K, 25000 kPa, x2 = 0.2801 | 694.78 ± 0.57
363.07 K, 1000 kPa, x2 = 0.7736 | 654.79 ± 0.42
363.07 K, 1000 kPa, x2 = 0.9623 | 647.67 ± 0.43
363.07 K, 2000 kPa, x2 = 0.7736 | 656.13 ± 0.43
363.07 K, 2000 kPa, x2 = 0.9623 | 649.03 ± 0.43
363.07 K, 3000 kPa, x2 = 0.7736 | 657.39 ± 0.43
363.07 K, 3000 kPa, x2 = 0.9623 | 650.38 ± 0.44
363.07 K, 4000 kPa, x2 = 0.7736 | 658.68 ± 0.44
363.07 K, 4000 kPa, x2 = 0.9623 | 651.7 ± 0.44
363.07 K, 5000 kPa, x2 = 0.7736 | 659.92 ± 0.45
363.07 K, 5000 kPa, x2 = 0.9623 | 652.98 ± 0.45
363.07 K, 6000 kPa, x2 = 0.7736 | 661.18 ± 0.45
363.07 K, 6000 kPa, x2 = 0.9623 | 654.25 ± 0.45
363.07 K, 7000 kPa, x2 = 0.7736 | 662.38 ± 0.46
363.07 K, 7000 kPa, x2 = 0.9623 | 655.52 ± 0.46
363.07 K, 8000 kPa, x2 = 0.7736 | 663.57 ± 0.46
363.07 K, 8000 kPa, x2 = 0.9623 | 656.76 ± 0.47
363.07 K, 9000 kPa, x2 = 0.7736 | 664.75 ± 0.47
363.07 K, 9000 kPa, x2 = 0.9623 | 658 ± 0.47
363.07 K, 10000 kPa, x2 = 0.7736 | 665.92 ± 0.48
363.07 K, 10000 kPa, x2 = 0.9623 | 659.23 ± 0.48
363.07 K, 10990 kPa, x2 = 0.7736 | 667.06 ± 0.48
363.07 K, 10990 kPa, x2 = 0.9623 | 660.42 ± 0.49
363.07 K, 12000 kPa, x2 = 0.7736 | 668.19 ± 0.49
363.07 K, 12000 kPa, x2 = 0.9623 | 661.58 ± 0.49
363.07 K, 13000 kPa, x2 = 0.7736 | 669.32 ± 0.5
363.07 K, 13000 kPa, x2 = 0.9623 | 662.75 ± 0.5
363.07 K, 14000 kPa, x2 = 0.7736 | 670.41 ± 0.5
363.07 K, 14000 kPa, x2 = 0.9623 | 663.87 ± 0.51
363.07 K, 15000 kPa, x2 = 0.7736 | 671.49 ± 0.51
363.07 K, 15000 kPa, x2 = 0.9623 | 664.99 ± 0.51
363.07 K, 16000 kPa, x2 = 0.7736 | 672.56 ± 0.52
363.07 K, 16000 kPa, x2 = 0.9623 | 666.07 ± 0.52
363.07 K, 17000 kPa, x2 = 0.7736 | 673.6 ± 0.52
363.07 K, 17000 kPa, x2 = 0.9623 | 667.17 ± 0.53
363.07 K, 18000 kPa, x2 = 0.7736 | 674.63 ± 0.53
363.07 K, 18000 kPa, x2 = 0.9623 | 668.2 ± 0.54
363.07 K, 19000 kPa, x2 = 0.7736 | 675.61 ± 0.54
363.07 K, 19000 kPa, x2 = 0.9623 | 669.26 ± 0.54
363.07 K, 20000 kPa, x2 = 0.7736 | 676.63 ± 0.55
363.07 K, 20000 kPa, x2 = 0.9623 | 670.29 ± 0.55
363.07 K, 21000 kPa, x2 = 0.7736 | 677.57 ± 0.55
363.07 K, 21000 kPa, x2 = 0.9623 | 671.3 ± 0.56
363.07 K, 22000 kPa, x2 = 0.7736 | 678.47 ± 0.56
363.07 K, 22000 kPa, x2 = 0.9623 | 672.27 ± 0.57
363.07 K, 23000 kPa, x2 = 0.7736 | 679.43 ± 0.57
363.07 K, 23000 kPa, x2 = 0.9623 | 673.14 ± 0.58
363.07 K, 24000 kPa, x2 = 0.7736 | 680.34 ± 0.58
363.07 K, 24000 kPa, x2 = 0.9623 | 674.08 ± 0.58
363.07 K, 25000 kPa, x2 = 0.7736 | 681.28 ± 0.58
363.07 K, 25000 kPa, x2 = 0.9623 | 674.98 ± 0.59
